# Assay results as given in ChEMBL document CHEMBL1132726, “Antioxidant activity and xanthine oxidase inhibition activity of reductic acid: ascorbic acid analogue” (Bioorg Med Chem Lett, 2000).
# Tests used:
# [1] = molecular target: T1, Xanthine dehydrogenase/oxidase (Bos taurus, UniProt P80457); assay: Compound was tested for the inhibition of xanthine oxidase; Active
# [2] = molecular target: T1, Xanthine dehydrogenase/oxidase; assay: Compound was tested for the inhibition of xanthine oxidase; Inactive
# T1 sequence (P80457 whole entry): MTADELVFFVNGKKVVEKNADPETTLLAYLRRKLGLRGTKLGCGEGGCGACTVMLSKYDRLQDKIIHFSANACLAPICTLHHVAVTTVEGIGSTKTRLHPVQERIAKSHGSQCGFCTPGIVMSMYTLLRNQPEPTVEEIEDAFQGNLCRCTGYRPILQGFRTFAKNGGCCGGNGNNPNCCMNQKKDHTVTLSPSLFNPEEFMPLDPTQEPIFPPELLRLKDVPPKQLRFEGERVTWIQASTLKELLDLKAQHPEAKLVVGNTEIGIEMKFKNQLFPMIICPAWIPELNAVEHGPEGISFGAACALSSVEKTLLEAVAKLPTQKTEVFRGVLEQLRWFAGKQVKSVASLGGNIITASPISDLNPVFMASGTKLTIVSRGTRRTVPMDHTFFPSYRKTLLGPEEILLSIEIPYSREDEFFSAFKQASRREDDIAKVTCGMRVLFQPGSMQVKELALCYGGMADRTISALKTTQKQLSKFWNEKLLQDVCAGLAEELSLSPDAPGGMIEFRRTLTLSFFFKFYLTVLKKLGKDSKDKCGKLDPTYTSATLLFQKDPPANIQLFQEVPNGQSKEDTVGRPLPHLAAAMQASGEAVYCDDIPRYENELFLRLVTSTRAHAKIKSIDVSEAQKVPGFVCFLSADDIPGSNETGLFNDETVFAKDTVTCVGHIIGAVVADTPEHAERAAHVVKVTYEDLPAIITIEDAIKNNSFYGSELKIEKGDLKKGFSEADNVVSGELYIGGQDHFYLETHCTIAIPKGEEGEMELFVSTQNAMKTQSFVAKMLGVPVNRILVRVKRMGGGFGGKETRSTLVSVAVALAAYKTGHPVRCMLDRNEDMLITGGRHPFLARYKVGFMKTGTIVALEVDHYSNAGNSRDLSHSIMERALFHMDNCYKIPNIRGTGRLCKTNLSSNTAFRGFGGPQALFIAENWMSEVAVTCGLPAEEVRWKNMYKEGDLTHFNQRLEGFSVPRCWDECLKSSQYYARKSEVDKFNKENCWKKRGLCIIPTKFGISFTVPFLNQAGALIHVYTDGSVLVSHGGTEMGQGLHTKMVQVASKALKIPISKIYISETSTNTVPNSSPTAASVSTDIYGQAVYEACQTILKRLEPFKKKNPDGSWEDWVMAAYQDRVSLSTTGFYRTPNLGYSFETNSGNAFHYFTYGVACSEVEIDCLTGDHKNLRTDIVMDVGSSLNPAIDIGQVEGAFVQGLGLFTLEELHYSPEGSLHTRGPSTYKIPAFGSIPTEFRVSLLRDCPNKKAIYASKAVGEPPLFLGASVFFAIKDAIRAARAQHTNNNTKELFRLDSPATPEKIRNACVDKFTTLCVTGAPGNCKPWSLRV
Activity [1],Activity [2],Compound
Active,,O=C1CCC(O)=C1O
,Not Active,O=C1COC(O)=C1O
,Not Active,O=C1O[C@H]([C@@H](O)CO)C(O)=C1O [ASCORBIC ACID]
